Broadly, the inhibition is the share of the control response that was lost under treatment. In general, melting point refers to the temperature, or range, at which the solid turns liquid. By pIC50 is commonly meant the negative decadic logarithm of the IC50, by convention in mol/L. A higher pIC50 goes with a low IC50.

The structures appear in SMILES notation. pIC50: −log10 of the molar value.

These results are taken from publication PMC9785777, “Antidiabetic Potential of Novel 1,3,5-Trisubstituted-2-Thioxoimidazloidin-4-One Analogues: Insights into α-Glucosidase, α-Amylase, and Antioxidant Activities” (Pharmaceuticals, 2022).

In data set [1] the target is T1, α-glucosidase enzyme (EC3.2.1.20) (Saccharomyces cerevisiae, UniProt P53341).
T1 construct: purchased Sigma-Aldrich
T1 sequence (P53341 whole entry): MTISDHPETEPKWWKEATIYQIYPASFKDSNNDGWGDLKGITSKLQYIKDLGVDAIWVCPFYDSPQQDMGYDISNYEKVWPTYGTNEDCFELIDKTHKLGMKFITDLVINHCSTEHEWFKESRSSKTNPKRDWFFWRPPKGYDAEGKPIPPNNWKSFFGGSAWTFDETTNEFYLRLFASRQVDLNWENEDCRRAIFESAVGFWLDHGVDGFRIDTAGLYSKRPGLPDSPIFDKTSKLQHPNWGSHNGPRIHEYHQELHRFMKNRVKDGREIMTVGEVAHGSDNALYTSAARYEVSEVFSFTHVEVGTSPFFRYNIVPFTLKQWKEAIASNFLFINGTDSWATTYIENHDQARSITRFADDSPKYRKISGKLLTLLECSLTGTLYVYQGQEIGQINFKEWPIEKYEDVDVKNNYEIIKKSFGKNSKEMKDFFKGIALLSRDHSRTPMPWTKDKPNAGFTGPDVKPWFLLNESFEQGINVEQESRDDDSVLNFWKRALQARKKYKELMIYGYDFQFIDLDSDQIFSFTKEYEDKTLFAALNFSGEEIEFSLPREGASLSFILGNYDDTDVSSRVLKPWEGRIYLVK
As to the kind of experiment: biochemical. The settings on record: for inhibition at 1 µg/mL / inhibition at 10 µg/mL / inhibition at 100 µg/mL / inhibition at 1000 µg/mL: read-out: % inhibition of α-glucosidase. An excerpt: The α-glucosidase enzyme is mainly expressed in the small intestine and catalyzes the breakdown of carbohydrates into glucose units by cleaving the glucosidic bonds. α-Glucosidase blockers are the first-line drugs for the treatment of non-insulin-dependent DM by suppressing carbohydrate hydrolysis and consequently retarding glucose absorption into the bloodstream and reducing postprandial hyperglycemia. α-Glucosidase is, thus, considered to be an attractive pharmaceutical target for the treatment of […] via control of the blood glucose levels. Accordingly, there is a continuous need to develop a potential class of α-glucosidase inhibitors. Toward this aim, we explored the potency of the synthesized compounds to inhibit the activity of α-glucosidase. We examined the inhibitory activity of the synthesized compounds following the reported assay by Peytam et al.. Thus, the compounds at different concentrations (1000, 100, 10, and 1 µg/mL) were incubated with α-glucosidase and subsequently […] was added and the absorbance was monitored at 405 nm. […] To further investigate the structural aspects of 1,3-thiohydantoin scaffold, a substitution at the N1-position with the methyl-proponate group was performed. […] Nevertheless, it has adverse gastrointestinal effects including diarrhea and flatulence. Thus, the discovery of a novel class of potent antidiabetic agents is urgently demanded.
An ELISA reader was used to assess the inhibition of α-glucosidase by 1,3,5-trisubstituted-2-thioxoimidazolidin-4-ones derivatives at various doses (1000, 100, 10, and 1 µg/mL) according to Peytam et al.. […] Then, the substrate (25 µL, 4 mM) was added to the mentioned mixture and allowed to incubate at 37 °C for 20 min. Finally, the change in absorbance at 405 nm was monitored using a Cytation 3 hybrid microplate reader (BioTek, Winooski, VT, USA). […] GraphPad prism 6.0 was used to calculate the IC50 values of the investigated compounds from the nonlinear regression curve (Systat Software, Inc. Tools for Science) (https://www.graphpad.com/scientific-software/prism/ (accessed on 1 September 2022)).

The target of the next data set is T2, α-amylase enzyme (Sus scrofa, UniProt P00690).
T2 sequence (P00690 16-511): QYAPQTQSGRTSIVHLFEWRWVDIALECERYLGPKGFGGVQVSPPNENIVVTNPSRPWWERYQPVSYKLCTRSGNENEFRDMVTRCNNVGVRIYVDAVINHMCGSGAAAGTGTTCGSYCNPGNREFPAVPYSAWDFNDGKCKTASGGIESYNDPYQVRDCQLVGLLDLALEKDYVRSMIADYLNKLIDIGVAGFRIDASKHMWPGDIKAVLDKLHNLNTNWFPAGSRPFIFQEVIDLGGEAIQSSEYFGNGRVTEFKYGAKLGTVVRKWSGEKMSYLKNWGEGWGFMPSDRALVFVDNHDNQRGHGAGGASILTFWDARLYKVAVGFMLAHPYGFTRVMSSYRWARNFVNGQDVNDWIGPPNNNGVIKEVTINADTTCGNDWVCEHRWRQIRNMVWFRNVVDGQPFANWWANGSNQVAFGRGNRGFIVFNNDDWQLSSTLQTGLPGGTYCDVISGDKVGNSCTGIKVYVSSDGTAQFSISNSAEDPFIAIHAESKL
As to the kind of experiment: α-amylase inhibition assay (DNSA, absorbance 595 nm). The class given is biochemical. The text has this: Furthermore, pancreatic α-amylase mediates the activity of glycoproteins in the small intestine membrane, such as sucrase-isomaltase and sodium/glucose cotransporter 1, via binding with N-linked oligosaccharides. […] However, attempts to find novel antagonists with enhanced effectiveness and minimum adverse effects are still worth investigating. In this regard, we examined the inhibitory activity of the synthesized compounds 4a–b, 5a–b, and 7a–b toward α-amylase activity. Therefore, compounds at different concentrations (100, 10, 1, and 0.1 µg/mL) were mixed with the α-amylase enzyme and subsequently 3,5-dinitrosalicylic acid was added and the absorption was assessed at 595 nm. […] To date, several potent natural and synthetic antagonists with dual inhibitory activities toward α-amylase and α-glucosidase enzymes have been reported which succeeded in being applied in clinics.
The inhibitory activity of synthesized 1,3,5-trisubstituted-2-thioxoimidazolidin-4-ones derivatives toward α-amylase activity was determined by ELISA analysis according to Bernfeld and Colowick. The α-amylase enzyme was provided by Sigma-Aldrich and the stock solution was prepared in DMSO (10 mg/10 mL). […] Briefly, α-amylase enzyme (100 mg, 1 unit per mL) was mixed in 100 mL of a 20 mM sodium phosphate buffer (pH 6.9). […] After incubation, 100 μL of the DNSA reagent was added to this mixture, and then heated in a water bath at 85 °C for 15 min. The reaction mixture was taken from the water bath, cooled, and the absorbance value at 595 nm was assessed. Individual blanks were created in order to adjust the background absorbance. A control experiment was carried out following the same protocol using DMSO. The α-amylase enzyme activity and percentage of inhibition were determined using the following formula: % Inhibition=control−test/control×100

Data set [2] can be described thus: DPPH free radical scavenging assay. An excerpt: The antioxidant capability of compounds 5a and 7a was estimated utilizing the DPPH (2,2-diphenyl-1- picrylhydrazyl) scavenging assay to assess the free radical scavenger activity. DPPH is a stable free radical substrate with a purple color which upon reaction with an antioxidant compound, converts into 1,1-diphenyl-2-picryl hydrazine, a […] compound. The DPPH assay is widely applied for the investigation of superoxide radical scavenging activity. In this regard, compounds 5a and 7a were incubated at different concentrations (3.12, 6.25, 12.5, 25, 50, 100, and 200 µg/mL) with DPPH substrate and the absorption was assessed by ELISA at 510 nm. In our investigations, Trolox, a water-soluble analogue of vitamin E, was applied as a standard antioxidant reference drug. […] Further, Qamar et al. synthesized and evaluated the antioxidant activity of some novel N3-substituted-2-thiohydantoins.
According to Valko et al., the ELISA approach was used to analyze the free-radical DPPH scavenging activity of compounds (5a and 7a) at different concentrations (3.12, 6.25, 12.5, 25, 50, 100, and 200 µg/mL). The DPPH assay assesses the hydrogen-donating activity and thus provides an evaluation of the antioxidant activity via estimating the DPPH free-radical scavenging activity. The color intensity of the reaction mixture was measured after a purple-colored stable free radical (DPPH) was reduced into the yellow-colored diphenylpicryl hydrazinem. Briefly, 200 µL of different concentrations of compounds 5a and 7a were mixed with 50 µL of DPPH (0.659 mM) solution, and the mixture was incubated at 25 °C for 20 min. The absorbance of the reaction mixture was estimated after incubation at 510 nm. In our investigations, trolox was employed as standard reference drug. A control reaction was performed, and the inhibitory efficiency of DPPH radical-scavenging activity was determined using the equation below: % Inhibition = (A0 − A1)/A0 × 100 (1) where A0 is absorbance of […] and A1 is the absorbance of the compound.
Background: DPPH is a stable violet radical that fades when it is reduced.

`C[C@H]1O[C@H](O[C@H]2[C@H](O)[C@@H](O)[C@@H](O[C@H]3[C@H](O)[C@@H](O)C(O)O[C@@H]3CO)O[C@@H]2CO)[C@H](O)[C@@H](O)[C@@H]1N[C@H]1C=C(CO)[C@@H](O)[C@H](O)[C@H]1O` (stereo partly shown) [Acarbose, reference compound]: in data set [1], the inhibition at 1 µg/mL is 31.8%. Also, in data set [1], the inhibition at 10 µg/mL was 58.4%. For the same compound, the inhibition at 100 µg/mL in data set [1] was found to be 76.9%. For the same compound, in data set [1], the inhibition at 1000 µg/mL worked out at 88.4%. Besides, the “% inhibition of α-amylase” value on α-amylase enzyme (0.1 µg/mL (log -1)) was 37.2%; on α-amylase enzyme (1 µg/mL (log 0)), 58.3%; at α-amylase enzyme (10 µg/mL (log 1)) it was 80.3%; on α-amylase enzyme (100 µg/mL (log 2)), 92.1%.
On to `C/C(=N\N1C(=O)/C(=C/c2ccccc2O)NC1=S)c1ccccc1O` [Compound 4a, 5-(2-Hydroxybenzylidene)-3-(2-hydroxyphenylethylidene)-amino-2-thioxoimidazolidin-4-one], for which the melting point amounted to 256 °C. Moreover, in data set [1], the pIC50 is 4.24, the inhibition at 1 µg/mL came to 24.5%, the inhibition at 10 µg/mL amounted to 44.9% and the inhibition at 100 µg/mL is 62.6%. Further, the inhibition at 1000 µg/mL in data set [1] was found to be 83.1%.
In turn, `C/C(=N\N1C(=O)/C(=C/c2cc(Br)ccc2O)NC1=S)c1ccccc1O` [Compound 4b, 5-(5-Bromo-2-hydroxybenzylidene)-3-(2-hydroxyphenylethylidene)-amino-2-thioxoimidazolidin-4-ones] came in with a melting point of 263 °C. In data set [1], the pIC50 was ~4.14, the inhibition at 1 µg/mL was found to be 20.4%, the inhibition at 10 µg/mL worked out at 36.4% and the inhibition at 100 µg/mL is 58.9%. In addition, the inhibition at 1000 µg/mL in data set [1] amounted to 84.7%.
On to `COC(=O)CCN1C(=S)N(/N=C(\C)c2ccccc2O)C(=O)/C1=C/c1cc(Br)ccc1O` [Compound 5b, Methyl [5-(5-Bromo-2-hydroxybenzylidene)-4-oxo-3-(2-hydroxyphenylethylidene)amino-2-thioxoimidazolidin-1-yl] propionate], for which the melting point was determined as 192 °C. For the same compound, in data set [1], the pIC50 was 4.67, the inhibition at 1 µg/mL was determined as 27.6%, the inhibition at 10 µg/mL is 50.3% and the inhibition at 100 µg/mL was found to be 71.4%. The inhibition at 1000 µg/mL in data set [1] was determined as 87.4%.
`COC(=O)CCN1C(=S)N(/N=C(\C)c2ccccc2O)C(=O)/C1=C/c1cc(Br)ccc1OC(C)=O` [Compound 7b, Methyl [5-(5-bromo-2-acetoxybenzylidene)-4-oxo-3-(2-hydroxyphenylethylidene)amino-2-thioxoimidazolidin-1-yl] propionate] displayed a melting point of 172 °C. For the same compound, in data set [1], the pIC50 is 4.66, the inhibition at 1 µg/mL was 28%, the inhibition at 10 µg/mL amounted to 47.8% and the inhibition at 100 µg/mL was found to be 70.4%. The inhibition at 1000 µg/mL in data set [1] was 86.5%.
As to `Cc1c(C)c2c(c(C)c1O)CCC(C)(C(=O)O)O2` (stereo not shown) [Trolox, reference compound], the “%RSA (DPPH radical scavenging activity)” value was found to be 11.3811% in data set [2] (3.12 µg/mL); 20.2046% in data set [2] (6.25 µg/mL); 32.4808% in data set [2] (12.5 µg/mL); 47.4425% in data set [2] (25 µg/mL); 63.2992% in data set [2] (50 µg/mL); 82.6087% in data set [2] (100 µg/mL). The “%RSA (DPPH radical scavenging activity)” value in data set [2] (200 µg/mL) came out at 89.0026%. Further, the “DPPH free radical scavenging IC50” value in data set [2] (n = 4) is given as 58.09 µg/mL.
